Literature values, collected in patent US20090110724A1, “COMPOSITIONS AND METHODS FOR TREATMENT OF PAIN” (Everett Laboratories, Inc., priority 2007, published 2009).

How the values were obtained:
[1] = cold water
COX-3 = details: Simmons et al. 2002

Compound | solubility [1] | inhibition of COX-3 (COX-3)
C=CCC1(CC(C)C)C(=O)NC(=O)NC1=O [Butalbital, 5-allyl-5-isobutylbarbituric acid] | slightly soluble | 
CC(=O)Nc1ccc(O)cc1 [acetaminophen, N-(4-hydroxyphenyl)acetamide] |  | strong inhibition
